Test results published in patent publication EP0324626A1, “1,4-Dihydropyridine derivatives” (priority 1988, dated 1989).

Assay: Acute toxicity test (limit test and range finding test), oral administration
Settings: both, ICR, mouse, in vivo
Experimental: The limit test and the range finding test were carried out using the SPF mice, as stated below, and LD₅₀ values were determined.
The dead mice are weighed and organ examinations are carried out for macroscopical lesions. Also, on the last day of the test all surviving mice are sacrificed and used for examinations.
If the mortality is more than 50% in the limit test, the range finding test is carried out for 14 days with three doses groups including the putative LD₅₀ value. The method is same as the foregoing limit test.

Q: With `C=CC(C)OC(=O)C1=C(C)NC(C)=C(C(=O)OCCN(C)Cc2ccccc2)C1c1cccc([N+](=O)[O-])c1` (stereo not drawn) [Example 1, 3-β-(N-benzyl-N-methylamino)ethyl 5-(1-methyl-2-propenyl) 2,6-dimethyl-4-(3′-nitrophenyl)-1,4-dihydropyridine-3,5-dicarboxylate] as the compound, how does the LD50 at 14 days read?
A: > 1000 mg/kg

Q: For `C=CCOC(=O)C1=C(C)NC(C)=C(C(=O)OCC(=C)C)C1c1cccc([N+](=O)[O-])c1` (stereo not drawn) [Example 13, 3-(2-methyl-2-propenyl) 5-allyl 2,6-dimethyl-4-(3′-nitrophenyl)-1,4-dihydropyridine-3,5-dicarboxylate], which LD50 at 14 days is on record?
A: > 5000 mg/kg

Q: With `C=C(C)COC(=O)C1=C(C)NC(C)=C(C(=O)OCCN(C)Cc2ccccc2)C1c1cccc([N+](=O)[O-])c1` (stereo not drawn) [Example 8, 3-β-(N-benzyl-N-methylamino)ethyl 5-(2-methyl-2-propenyl) 2,6-dimethyl-4-(3′-nitrophenyl)-1,4-dihydropyridine-3,5-dicarboxylate] as the compound, how does the LD50 at 14 days read?
A: > 1000 mg/kg

Q: With `C=C(C)COC(=O)C1=C(C)NC(C)=C(C(=O)OC)C1c1cccc([N+](=O)[O-])c1` (stereo not drawn) [Example 12, 3-methyl 5-(2-methyl-2-propenyl) 2,6-dimethyl-4-(3′-nitrophenyl)-1,4-dihydropyridine-3,5-dicarboxylate] as the compound, how does the LD50 at 14 days read?
A: 1000 mg/kg

Q: Which LD50 at 14 days does the source give for `C=CC(C)OC(=O)C1=C(C)NC(C)=C(C(=O)OCCOC)C1c1cccc([N+](=O)[O-])c1` (stereo not drawn) [Example 3, 3-(1-methyl-2-propenyl) 5-(2-methoxyethyl) 2,6-dimethyl-4-(3′-nitrophenyl)-1,4-dihydropyridine-3,5-dicarboxylate] here?
A: > 5000 mg/kg

Q: Which LD50 at 14 days does the source give for `COC(=O)C1=C(C)NC(C)=C(C(=O)OCCN(C)Cc2ccccc2)C1c1cccc([N+](=O)[O-])c1` (stereo not drawn) [Nicardipine, reference compound] here?
A: < 700 mg/kg
